The values that follow come from patent publication US8309790B2, “Animal models for demyelination disorders” (University of Chicago, priority 2005, dated 2012).

Like-named read-outs stand apart in the source and are kept apart here.

Assay [1] relates to Hippocampal organotypic cultures. In words: Hippocampal organotypic cultures (HOC), in vitro model of myelination, MBP Western blot. It is filed as cell-based. Conditions: for reduction of MBP expression elicited by IFN-γ exposure: SAL at various concentrations combined with 100 U/ml IFN-γ for 7 days. How it is done: Our hypothesis is that the integrated stress response has the potential to protect oligodendrocytes from the harmful effects of the inflammatory response in patients with multiple sclerosis (MS). […] To test whether agents that prolong eIF2α phosphorylation might provide protection to oligodendrocytes against detrimental inflammatory factors, the effect of Salubrinol (Sal) in the presence of the immune cytokine IFN-γ was tested in an in vitro model of myelination.
HOCs, were prepared and maintained as described previously (Kunkler and Kraig (1997) J Cereb Blood Flow Metab. 17:26-43), and were maintained in vitro for 7 days before use. SAL at various concentrations was combined with 100 U/ml IFN-γ and added to the HOC cultures for 7 days. […] After 7 days of 100 U/ml IFN-γ exposure, the levels of MBP decreased approximately 80% in the HOCs (FIG. 29).
(In general: In western blotting, separated proteins are transferred to a membrane and probed.)

In a further assay the test system is PP1-GADD34 phosphatase. The settings on record: results in sustained eIF2α phosphorylation, cited from earlier work.
Assay [2] relates to transgenic littermates overexpressing IFN-γ and/or SOCS1. The experiment in a line: IFN-γ-overexpressing mice crossed to PLP/SOCS1 mice, clinical and histological evaluation at postnatal day 21. The class given is in vivo. The settings on record: for Incidence of tremor: ten mice per group; for oligodendrocyte density: corpus callosum, postnatal day 21. The source says: The transgenic mice MBP/IFN-γ and GFAP/tTA×TRE/IFN-γ (lines 184/110 and 184/67) that overexpress IFN-γ in the CNS have been described elsewhere (Corbin et al., 1996; Gao et al., 2000; Lin et al., 2004, 2005). Briefly, MBP/IFN-γ mice are transgenic animals in which IFN-γ expression is driven by the myelin basic protein (MBP) transcriptional control region (Gao et al., 2000). GFAP/tTA×TRE/IFN-γ are double-transgenic mice obtained by mating single-transgenic GFAP/tTA to single-transgenic TRE/IFN-γ (lines 110 and 67) mice. The two TRE/IFN-γ mouse lines, line 110 and line 67, used in the experiments produce different amounts of IFN-γ when crossed to GFA/tTA mice (184/110 and 184/67) (Lin e al., 2004, 2005). GFAP/tTA×TRE/IFN-γ is a tetracycline-off-inducible system in which the glial fibrilary acidic protein (GFAP) transcriptional control region drives the expression of tTA, which in turn, binds to the TRE (tet responsive element) and initiates the expression of IFN-γ. Administration of doxycycline suppresses tTA DNA binding and IFN-γ expression, and doxycycline removal allows for temporally-controlled induction of IFN-γ expression (Gao et al., 1999).
IFN-γ-overexpressing mice were crossed to the PLP/SOCS1 mice in double-transgenic, (MBP/IFN-γ×PLP/SOCS1) and triple-transgenic (GFAP/tTA×TRE/IFN-γ×PLP/SOCS1) mating systems. MBP/IFN-γ×PLP/SOCS1 (172×PLP/SOCS1) mating was performed according to a standard mating protocol. The GFAP/tTA×TRE/IFN-γ×PLP/SOCS1 matings were performed in a 2-step mating process: GFAP/tTA mice were initially crossed to PLP/SOCS1 mice, and double-positive (184×PLP/SOCS1) offspring were then crossed to the TRE/IFN-γ lines 110 and 67, separately. This second mating step was performed according to the previously described “tet-off” protocol. Doxycycline 0.05 mg/ml (Sigma-Aldich) was added to the water of impregnated female mice until embryonic day 14, after which the animals were switched back to normal water, thereby allowing initiation of IFN-γ transcription, which peaks during the postnatal period (Lin et al., 2005).
The litters of the mating systems (F1 generation) were examined daily and sacrificed at postnatal day 21. Clinical evaluation included behavioral observation and challenged ladder walking to elicit tremor. Histological examination included quantitation of the number and density of oligodendrocytes and examination of the myelination patterns. Brain tissue was simultaneously obtained from each animal at the time of sacrifice to verify and measure the expression of IFN-γ and Flag-SOCS1 (see below). The clinical and histological findings were subsequently stratified according to genotype. All animal procedures were conducted in compliance with the National Institutes of Health Guide for Care and Use of Laboratory Animals and were approved by the Institutional Animal Care and Use Committee at The University of Chicago.
Oligodendrocyte cell density was assessed digitally using Axiovision software, at postnatal day 21, as previously described (Lin et al., 2005). The brains were sectioned sagittally through the corpus callosum dividing the brain in two symmetrical halves. Ten frozen sections from each half were prepared at 7 μm thickness, and numbered in the sequence of their preparation. The brains of three animals per study group were prepared in this fashion. Following the CC1 immunostaining the corresponding area of corpus callosum of each section was digitally selected and the corresponding total area obtained. CC1 cell counting was performed manually within the selected areas of each section, and the number of CC1 positive cells per square area (mm^2) calculated. The results were presented as mean±SD of CC1 (+) cells/mm^2 with n=3 animals per study group. […]

As to `O=C(/C=C/c1ccccc1)NC(NC(=S)Nc1cccc2cccnc12)C(Cl)(Cl)Cl` (stereo not shown) [SAL, salubrinal], the “reduction of MBP expression elicited by IFN-γ exposure” value was “markedly attenuated” in assay [1] and “attenuating effect” in assay [1] (listed as Sal). Further, in assay [1] (SAL treatment alone), the MBP expression entry is reported as “did not affect”. Besides, the PP1-GADD34 phosphatase activity result in the assay with PP1-GADD34 phosphatase is given as “specifically inhibits”; in the assay on PP1-GADD34 phosphatase (listed as Salubrinol), “specifically inhibit”.

B1: suppressor of cytokine signaling 1 (protein, UniProt O35716 1-212, looked up)
Suppressor of cytokine …: MVARNQVAADNAISPAAEPRRRSEPSSSSSSSSPAAPVRPRPCPAVPAPAPGDTHFRTFRSHSDYRRITRTSALLDACGFYWGPLSVHGAHERLRAEPVGTFLVRDSRQRNCFFALSVKMASGPTSIRVHFQAGRFHLDGSRETFDCLFELLEHYVAAPRRMLGAPLRQRRVRPLQELCRQRIVAAVGRENLARIPLNPVLRDYLSSFPFQI
modifications: Flag tag
In the case of B1, the Incidence of tremor in assay [2] (172 × PLP/SOCS1 mating system), in assay [2] (184/67 × PLP/SOCS1 mating system) and in assay [2] (184/110 × PLP/SOCS1 mating system) was 0% in each case. The oligodendrocyte density is 142±5 CC1 (+) cells/mm^2 in assay [2] (184/67 × PLP/SOCS1 system) and 141±6 CC1 (+) cells/mm^2 in assay [2] (184/110 × PLP/SOCS1 system).
